Measured values published in patent US20250163057A1, “DCN-1 MODULATING COMPOUNDS AND METHODS OF USE THEREOF” (Cellarity, Inc., priority 2023, published 2025).
Where two headings read alike, the source gives them in different places.

Legend:
fetal hemoglobin protein = test: HbF HPLC Cell Culture Assay; format: cell-based; conditions: for EC50: 336 h, HbF induction, Day 14 of culture; for Hemoglobin HPLC Ymax obs (%): relative to a control compound
Protocol: A Cell Culture Assay was performed to evaluate the ability of compounds to induce fetal hemoglobin in a cell culture. The amount fetal hemoglobin protein induced was measured by HPLC.
Cell culture began on Day −4 (thaw day). Thaw buffer was prepared by sterile filtering 6 mL of Human Serum Albumin and 144 mL of PBS to make sterile 1% I/PBS. Cells were removed from liquid nitrogen storage and mostly thawed in a 37° C. water bath. Once the ice in the cryovials was melted, cells were transferred quickly into a 50 mL conical tube. Cryovial was rinsed once with thaw buffer and buffer was transferred over to the conical tube as well. Next, doubling volumes of thaw buffer was added to the conical and gently swirled for ˜30 seconds to one minute (for example: 2 mL was added and swirled, then 4 mL, then 8 mL, and so on) until the volume in the conical is 32 mL. Cells and buffer were centrifuged at 300G for 8 minutes, and the supernatant was aspirated. Another 32 mL of thaw buffer was added slowly, swirling the tube. The tube was again centrifuged at 300G for 8 minutes and the supernatant was aspirated. Cells were counted by resuspending in 1 mL of expansion media and counting with AOPI to determine the concentration of cells/mL.
On day 2, Passage & Treatment Day, each cell culture well was counted. Next fresh CD34 Expansion Media was made which contained StemSpan SFEM, CC100 and TPO all from StemCell technologies. Appropriate volume of cells was collected, centrifuged at 300 g and resuspended in fresh media. Cells were plated in treatment format at a density of 200,000 cells/ml, 25,000 cells/well. Finally, they were treated with test compounds as well as positive and negative controls.
On Days 0, 3 & 5 the same process was carried out. First, each cell culture well was counted. Next Phase 1 Erythroid Differentiation Media was freshly made, which contained StemSpan SFEM, 2.5 U/ml EPO, 0.5 mg/ml Holo-TF, 1× Glutamax, 5 μl/ml chemically defined lipid mixture, 10 ng/ml insulin, 50 ng/ml SCF, 10 ng/ml IL-3. Appropriate volume of cells was collected, centrifuged at 300 g and resuspended in fresh media. Cells should now be in fresh wells at a density of 100,000 cells/ml. 60,000 cells, 60,000 cells and 100,000 cells for days 0, 3, 5 respectively. Finally, fresh compound was added to each well at each timepoint (Days 0, 3 & 5).
On Day 7 media and cell culture density changes. Each cell culture well was counted. Next, Phase 2 Erythroid Differentiation Media was freshly made, which contains StemSpan SFEM, 2.5 U/ml EPO, 0.5 mg/ml Holo-TF, 1× Glutamax, 5 μl/ml chemically defined lipid mixture, 10 ng/ml insulin, 50 ng/ml SCF. Appropriate volume of cells was collected, centrifuged at 300 g and resuspended in fresh media. Cells were plated in fresh wells at a density of 500,000 cells/ml, 300,000 cells/well. Finally, fresh compound was added to each well at Day 7 timepoint.
On Day 10 media formulation is once again changed. Each cell culture well was counted. Fresh Phase 3 Erythroid Differentiation Media was made which contains StemSpan SFEM, 2.5 U/ml EPO, 0.5 mg/ml Holo-TF, 1× Glutamax, 5 μl/ml chemically defined lipid mixture, 10 ng/ml insulin. Appropriate volume of cells was collected, centrifuged at 300 g and resuspended in fresh media. Cells were plated in fresh wells at a density of 500,000 cells/ml, 500,000 cells/well. Finally, fresh compound was added to each well at Day 10 timepoint.
On Day 12 the cell density is once again changed. Each cell culture well was counted. Fresh Phase 3 Erythroid Differentiation Media was made. Appropriate volume of cells was collected, centrifuged at 300 g and resuspended in fresh media. Cells were plated in fresh wells at a density of 1,000,000 cells/ml, 1,000,000 cells/well. Finally fresh compound was added to each well.
Day 14 (18th day of experiment) refers to the terminal day of culture. Each cell culture well was counted. Next between 150K and 650K cells were placed in a uniquely labeled 1.5 ml standard tube. […]

[1] = target: DCN1 (DCUND1) protein PONY domain (Homo sapiens (Human), UniProt Q96GG9); test: TR-FRET assay, DCN1 binding with FAM-labeled probe
Summary of the method: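 First, the E. coli-derived PONY domain was biotinylated and paired with streptavidin Tb cryptate. Compounds in 0.1% DMSO were then added to DCN1 and FAM-probe (5 nM/20 nM, or 0.31 nM/900 nM total with 800 nM unlabelled) in TritonX, 200 mM NaCl buffer. Finally, TR-FRET ratios were recorded at 1, 5 and 24 hrs.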

[2] = 24 hr after treatment with compound, read-out: TR FRET IC50 24 hr
[3] = read-out: TR FRET IC50 1 hr, 1 hr after treatment with compound
[4] = TR FRET IC50 1 hr (nM), 1 hr after treatment with compound

DCN1 (DCUND1) protein PONY domain, sequence (Q96GG9 60-248): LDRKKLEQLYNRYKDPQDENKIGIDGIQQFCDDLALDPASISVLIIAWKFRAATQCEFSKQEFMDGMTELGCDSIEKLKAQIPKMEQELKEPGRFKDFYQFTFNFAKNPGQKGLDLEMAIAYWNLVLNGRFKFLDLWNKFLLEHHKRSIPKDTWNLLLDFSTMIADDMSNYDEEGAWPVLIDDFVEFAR

Structure (SMILES)	EC50 (fetal hemoglobin protein) [nM]	Hemoglobin HPLC Ymax obs (%) (fetal hemoglobin protein)	IC50 [1, 2] [nM]	IC50 [1, 3] [nM]	IC50 [1, 4] [nM]
CCN1C(=O)[C@@H](NC(=O)c2cccc(C(F)(F)F)c2)[C@@H](c2ccc(F)cc2)c2c(C(=O)N3[C@H](C#N)C[C@H]4C[C@H]43)nn(-c3ccccc3)c21 [Compound I-277]	≤ 50	++ (Hemoglobin HPLC Ymax greater than 65.0 and less than or equal to 100.0)	≤ 200	≤ 200	
CCN1C(=O)[C@@H](NC(=O)c2cccc(C(F)(F)F)c2)[C@@H](c2ccc(F)cc2)c2c(C(=O)NC3(C#N)CC3)nn(-c3ccccc3)c21 [Compound I-112]	> 200	+++ (Hemoglobin HPLC Ymax greater than 100.0)	200 to 1000		1000 to 3000
CCN1C(=O)[C@@H](NC(=O)c2cccc(C(F)(F)F)c2)[C@@H](c2ccc(F)cc2)c2c(CNC#N)nn(-c3ccccc3)c21 [Compound I-140, N-[(4S, 5S)-3-[(cyanoamino)methyl]-7-ethyl-4-(4-fluorophenyl)-6-oxo-1-phenyl-4,5-dihydropyrazolo[3,4-b]pyridine-5-yl]-3-(trifluoromethyl) benzamide]	> 200	+ (Hemoglobin HPLC Ymax greater than or equal to 0.0 and less than or equal to 65.0)	≤ 200	≤ 200	
CCN1C(=O)[C@@H](NC(=O)c2cccc(C(F)(F)F)c2)[C@@H](C2CC2)c2c(C(=O)N3C[C@H](OC)C[C@H]3C#N)nn(C3CCOCC3)c21 [Compound I-377]	50 to 200	++ (Hemoglobin HPLC Ymax greater than 65.0 and less than or equal to 100.0)	≤ 200	≤ 200	
CCN1C(=O)[C@@H](NC(=O)c2cccc(C(F)(F)F)c2)[C@@H](c2ccc(F)cc2)c2c(C(=O)N3CS(=O)(=O)C[C@H]3C#N)nn(C3CCOCC3)c21 (mixture of isomers) [Compound I-661, N-((4S,5S)-3-(4-cyano-1,1-dioxidothiazolidine-3-carbonyl)-7-ethyl-4-(4-fluorophenyl)-6-oxo-1-(tetrahydro-2H-pyran-4-yl)-4,5,6,7-tetrahydro-1H-pyrazolo[3,4-b]pyridin-5-yl)-3-(trifluoromethyl)benzamide]	> 200	++ (Hemoglobin HPLC Ymax greater than 65.0 and less than or equal to 100.0)	≤ 200	≤ 200	
CCN1C(=O)[C@@H](NC(=O)c2cccc(C(F)(F)F)c2)[C@@H](C2CC2)c2c(C(=O)N(C)[C@H](C)C#N)nn(C3CCOCC3)c21 [Compound I-422]	50 to 200	++ (Hemoglobin HPLC Ymax greater than 65.0 and less than or equal to 100.0)	≤ 200	≤ 200	
CCN1C(=O)[C@@H](NC(=O)c2cccc(C(F)(F)F)c2)[C@@H](C2CCC2)c2c(C(=O)N3CCC[C@H]3C#N)nn(C3CCOCC3)c21 [Compound I-692]	> 200	++ (Hemoglobin HPLC Ymax greater than 65.0 and less than or equal to 100.0)	≤ 200		200 to 1000
C=C(CN1CCC1)C(=O)NCc1nn(-c2ccccc2)c2c1[C@@H](c1ccc(F)cc1)[C@H](NC(=O)c1cccc(C(F)(F)F)c1)C(=O)N2CC [Compound I-139]	≤ 50	++ (Hemoglobin HPLC Ymax greater than 65.0 and less than or equal to 100.0)	≤ 200	≤ 200	
CCN1C(=O)[C@@H](NC(=O)c2cccc(C(F)(F)F)c2)[C@@H](C2CC2)c2c(C(=O)N3CC[C@H](OC)[C@H]3C#N)nn(C3CCOCC3)c21 [Compound I-418]	≤ 50	+++ (Hemoglobin HPLC Ymax greater than 100.0)	≤ 200	≤ 200	
CCN1C(=O)[C@@H](NC(=O)c2cccc(C(F)(F)F)c2)[C@@H](c2ccc(F)cc2)c2c(C(=O)N3CCNCC3C#N)nn(C3CCOCC3)c21 (stereo partly shown) [Compound I-334]	50 to 200	++ (Hemoglobin HPLC Ymax greater than 65.0 and less than or equal to 100.0)	≤ 200	≤ 200	
